± gives the uncertainty stated by the source.
Assay: xn = mol fraction of the nth substance listed
Conditions: 101 kPa

CCCCCCCCCCCCCCCC[n+]1ccccc1.O=C([O-])C(O)c1ccccc1 + NCC(=O)NCC(=O)O + O
electrical conductivity [S/m]
Conditions	293.15 K	298.15 K	303.15 K	308.15 K	313.15 K
x1 = 1.08e-06, x2 = 0	0.00061 ± 0.00098	0.00068 ± 0.0011	0.00076 ± 0.0012	0.00083 ± 0.0013	0.0009 ± 0.0015
x1 = 1.09e-06, x2 = 0.001799	0.00287 ± 0.00079	0.00346 ± 0.00089	0.00413 ± 0.00097	0.0049 ± 0.0011	0.0058 ± 0.0013
x1 = 1.27e-06, x2 = 0.0009002	0.00184 ± 0.00094	0.0022 ± 0.001	0.0026 ± 0.0011	0.0031 ± 0.0014	0.0036 ± 0.0015
x1 = 1.98e-06, x2 = 0	0.001 ± 0.001	0.0012 ± 0.0012	0.0013 ± 0.0013	0.0014 ± 0.0014	0.0016 ± 0.0015
x1 = 2.19e-06, x2 = 0.001799	0.00326 ± 0.00079	0.00391 ± 0.00091	0.0046 ± 0.001	0.0054 ± 0.0012	0.0064 ± 0.0013
x1 = 2.36e-06, x2 = 0.0009002	0.00226 ± 0.00086	0.00268 ± 0.00096	0.0031 ± 0.0011	0.0036 ± 0.0012	0.0042 ± 0.0013
x1 = 2.88e-06, x2 = 0	0.00147 ± 0.00099	0.0016 ± 0.0011	0.0018 ± 0.0012	0.002 ± 0.0014	0.0022 ± 0.0015
x1 = 3.26e-06, x2 = 0.0009002	0.00264 ± 0.00086	0.0031 ± 0.00097	0.0036 ± 0.0011	0.0042 ± 0.0012	0.0048 ± 0.0013
x1 = 3.46e-06, x2 = 0.001799	0.00367 ± 0.00084	0.00438 ± 0.00095	0.0051 ± 0.0011	0.006 ± 0.0012	0.007 ± 0.0013
x1 = 3.96e-06, x2 = 0	0.0019 ± 0.001	0.0022 ± 0.0011	0.0024 ± 0.0013	0.0026 ± 0.0014	0.0029 ± 0.0015
x1 = 4.17e-06, x2 = 0.0009002	0.00301 ± 0.00089	0.0035 ± 0.001	0.004 ± 0.0011	0.0046 ± 0.0012	0.0053 ± 0.0014
x1 = 4.56e-06, x2 = 0.001799	0.00407 ± 0.00085	0.00482 ± 0.00096	0.0056 ± 0.0011	0.0066 ± 0.0012	0.0076 ± 0.0014
x1 = 4.69e-06, x2 = 0	0.0023 ± 0.001	0.0026 ± 0.0011	0.0029 ± 0.0013	0.0031 ± 0.0014	0.0035 ± 0.0015
x1 = 5.44e-06, x2 = 0.0009002	0.00346 ± 0.00086	0.004 ± 0.00098	0.0046 ± 0.0011	0.0053 ± 0.0012	0.006 ± 0.0014
x1 = 5.47e-06, x2 = 0.001799	0.00441 ± 0.00086	0.00521 ± 0.00098	0.0061 ± 0.0011	0.007 ± 0.0013	0.0082 ± 0.0014
x1 = 5.95e-06, x2 = 0	0.00281 ± 0.00098	0.0032 ± 0.0011	0.0035 ± 0.0012	0.0038 ± 0.0013	0.0042 ± 0.0015
x1 = 6.89e-06, x2 = 0.0009002	0.00401 ± 0.00086	0.00464 ± 0.00098	0.0053 ± 0.0011	0.006 ± 0.0012	0.0069 ± 0.0014
x1 = 6.93e-06, x2 = 0.001799	0.00487 ± 0.00086	0.00571 ± 0.00097	0.0066 ± 0.0011	0.0077 ± 0.0013	0.0089 ± 0.0014
x1 = 7.21e-06, x2 = 0	0.00341 ± 0.00095	0.0038 ± 0.0011	0.0042 ± 0.0012	0.0046 ± 0.0013	0.0051 ± 0.0015
x1 = 8.34e-06, x2 = 0.0009002	0.00451 ± 0.00086	0.0052 ± 0.00099	0.0059 ± 0.0011	0.0068 ± 0.0013	0.0077 ± 0.0014
x1 = 8.38e-06, x2 = 0.001799	0.00536 ± 0.00083	0.00626 ± 0.00095	0.0072 ± 0.0011	0.0084 ± 0.0012	0.0097 ± 0.0014
x1 = 8.83e-06, x2 = 0	0.00406 ± 0.00092	0.0046 ± 0.001	0.005 ± 0.0011	0.0055 ± 0.0013	0.006 ± 0.0014
x1 = 9.97e-06, x2 = 0.0009002	0.00504 ± 0.00084	0.00579 ± 0.00095	0.0066 ± 0.0011	0.0075 ± 0.0012	0.0085 ± 0.0014
x1 = 1.002e-05, x2 = 0.001799	0.00583 ± 0.00084	0.0068 ± 0.00096	0.0078 ± 0.0011	0.009 ± 0.0013	0.0104 ± 0.0014
x1 = 1.045e-05, x2 = 0	0.00469 ± 0.00089	0.0053 ± 0.001	0.0058 ± 0.0011	0.0065 ± 0.0012	0.0071 ± 0.0014
x1 = 1.142e-05, x2 = 0.0009002	0.00547 ± 0.00083	0.00629 ± 0.00094	0.0071 ± 0.0011	0.0081 ± 0.0012	0.0092 ± 0.0014
x1 = 1.166e-05, x2 = 0.001799	0.0062 ± 0.00083	0.00723 ± 0.00095	0.0083 ± 0.0011	0.0096 ± 0.0012	0.011 ± 0.0014
x1 = 1.207e-05, x2 = 0	0.00516 ± 0.00088	0.0058 ± 0.001	0.0064 ± 0.0011	0.0071 ± 0.0012	0.0079 ± 0.0014
x1 = 1.287e-05, x2 = 0.0009002	0.00582 ± 0.00082	0.00669 ± 0.00094	0.0076 ± 0.0011	0.0086 ± 0.0012	0.0098 ± 0.0013
x1 = 1.312e-05, x2 = 0.001799	0.0066 ± 0.00085	0.00763 ± 0.00096	0.0088 ± 0.0011	0.0101 ± 0.0013	0.0117 ± 0.0014
x1 = 1.351e-05, x2 = 0	0.00562 ± 0.00086	0.00631 ± 0.00097	0.007 ± 0.0011	0.0077 ± 0.0012	0.0085 ± 0.0013
x1 = 1.414e-05, x2 = 0.0009002	0.00617 ± 0.00085	0.00708 ± 0.00096	0.008 ± 0.0011	0.0091 ± 0.0012	0.0103 ± 0.0014
x1 = 1.476e-05, x2 = 0.001799	0.00697 ± 0.0009	0.0081 ± 0.001	0.0093 ± 0.0012	0.0107 ± 0.0013	0.0122 ± 0.0015
x1 = 1.478e-05, x2 = 0	0.00603 ± 0.0009	0.0068 ± 0.001	0.0075 ± 0.0011	0.0083 ± 0.0012	0.0092 ± 0.0013
x1 = 1.54e-05, x2 = 0.0009002	0.00651 ± 0.00092	0.0075 ± 0.001	0.0084 ± 0.0011	0.0096 ± 0.0013	0.0108 ± 0.0014
x1 = 1.622e-05, x2 = 0	0.00644 ± 0.00092	0.0072 ± 0.001	0.008 ± 0.0011	0.0089 ± 0.0013	0.0098 ± 0.0014
x1 = 1.622e-05, x2 = 0.001799	0.00735 ± 0.00091	0.0084 ± 0.001	0.0097 ± 0.0012	0.0112 ± 0.0014	0.0128 ± 0.0015
x1 = 1.667e-05, x2 = 0.0009002	0.00687 ± 0.00096	0.0079 ± 0.001	0.0089 ± 0.0012	0.0101 ± 0.0013	0.0114 ± 0.0015
x1 = 1.75e-05, x2 = 0.001799	0.00771 ± 0.00097	0.0088 ± 0.0011	0.0102 ± 0.0013	0.0117 ± 0.0014	0.0133 ± 0.0016
x1 = 1.766e-05, x2 = 0	0.00687 ± 0.00093	0.0077 ± 0.001	0.0085 ± 0.0012	0.0094 ± 0.0013	0.0104 ± 0.0014

— the CheMixHub ionic liquid set
